According to ChEMBL document CHEMBL1201862, “PubChem BioAssay data set” (2004):
Several values for one entry are separate records, joined by “and”; a condition that tells them apart may be missing. Equal entries are not always repeated.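 Grown in 96-well plates, cells were treated for 48 hours with each compound at five concentrations. Insufficient inhibition: endpoint recorded as highest concentration tested. GI50: concentration for 50% inhibition of growth.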 Activity calls are given as the source filed them. Cut-off read from the data, not from the text of the source: active = GI50 up to about 1.1 µM and inactive = higher. Peptide text beside a SMILES is read from it. * marks the point of attachment. Boc = CC(C)(C)OC(=O)*

Experiments:
Assay in all cases: inhibition of tumour cell growth, NCI panel, 48 h
[1] = tested on: 786-0
[2] = tested on: ACHN
[3] = tested on: BT-549
[4] = tested on: CAKI-1
[5] = tested on: HCT-116
[6] = tested on: MDA-MB-231
[7] = tested on: MDA-N
[8] = tested on: MOLT-4
[9] = tested on: NCI-H460
[10] = tested on: OVCAR-4
[11] = tested on: OVCAR-5
[12] = tested on: RPMI-8226
[13] = tested on: SF-295
[14] = tested on: SK-MEL-28
[15] = tested on: SN12C
[16] = tested on: SR
[17] = tested on: U-251
[18] = tested on: Hs-578T
[19] = tested on: LOX IMVI

Measured: GI50

Cn1cnnc1SC(F)(F)c1nc2ccccc2o1
inactive: [1] > 100 µM | [2] > 100 µM | [3] > 100 µM | [4] > 100 µM | [5] > 100 µM | [6] > 100 µM | [7] > 100 µM | [8] > 100 µM | [9] > 100 µM | [10] > 100 µM | [11] > 100 µM | [12] > 100 µM | [13] > 100 µM | [14] > 100 µM | [15] > 100 µM | [16] > 100 µM | [17] > 100 µM

C[C@]12CC[C@H]3[C@@H](CC=C4C[C@@H](O)CC[C@@]43C)[C@@H]1CC[C@@H]2N(CCO)CCO
inactive: [1] 19.7 µM | [2] 30.7 µM | [3] > 100 µM | [4] 45.3 µM | [5] 26.9 µM | [18] 45.2 µM | [19] 40.7 µM | [6] > 100 µM | [7] 45.9 µM | [8] > 100 µM | [9] 33.2 µM | [10] > 100 µM | [11] 55.1 µM | [12] > 100 µM | [13] 57.5 µM | [14] 96.2 µM | [15] 33 µM | [17] 59.8 µM

COC(=O)c1c(C#N)[nH]c(-c2ccsc2)c1C(=O)OC
inactive: [1] > 100 µM | [2] > 100 µM | [3] > 100 µM | [4] 33.4 µM | [5] > 100 µM | [18] > 100 µM | [19] > 100 µM | [6] > 100 µM | [7] > 100 µM | [8] > 100 µM | [11] > 100 µM | [12] 40.4 µM | [13] > 100 µM | [14] > 100 µM | [15] > 100 µM | [16] > 100 µM | [17] > 100 µM

CN(C)c1c(C2CC(O)C(CO)O2)c(=O)c1=O (configuration not stated)
inactive: [1] > 100 µM | [2] > 100 µM | [3] > 100 µM | [5] > 100 µM | [18] > 100 µM | [19] > 100 µM | [6] > 100 µM | [7] > 100 µM | [8] > 100 µM | [9] > 100 µM | [10] > 100 µM | [11] > 100 µM | [12] > 100 µM | [13] > 100 µM | [14] > 100 µM | [15] > 100 µM | [16] > 100 µM | [17] > 100 µM

Cc1ccc(/N=N/C(=N/NC(=O)c2cc(Cl)ccc2O)c2ccc(N(CCC#N)CCC#N)cc2C)cc1
inactive: [1] 28.1 µM | [2] 24.4 µM | [3] 27.5 µM | [4] 41.4 µM | [5] 19 µM | [18] 9.95 µM | [6] 25.3 µM | [7] 30.6 µM | [8] 53.7 µM | [9] 21.8 µM | [10] 23.8 µM | [11] 41.5 µM | [12] 8.36 µM | [13] 21.3 µM | [15] 28.4 µM | [16] 51.2 µM | [17] 18.2 µM

O=C1c2c(Cl)c(Cl)c(Cl)c(Cl)c2C(=O)N1CCN(c1c(Cl)ssc1=O)c1c(Cl)ssc1=O
inactive: [1] 18.2 µM | [2] 18.2 µM | [3] 30.9 µM | [4] 17.5 µM | [5] 16.1 µM | [18] > 100 µM | [19] 21.9 µM | [6] 36.1 µM | [7] 18.5 µM | [8] 10.3 µM | [9] 32.1 µM | [10] 18.2 µM | [11] 50.1 µM | [13] > 100 µM | [14] 58.3 µM | [15] 23.4 µM | [16] 20 µM | [17] 95.9 µM

CC(C)(C)[Si](C)(C)OCC#C[C@@]1(O)CCCCC1CC(Sc1ccccc1)Sc1ccccc1 (some centres not stated)
inactive: [1] 13.5 µM | [2] 14.4 µM | [3] 19 µM | [4] 10.7 µM | [5] 11.8 µM | [19] 17.3 µM | [6] 16.9 µM | [7] 18.2 µM | [8] 11.6 µM | [9] 15.2 µM | [10] 13.9 µM | [11] 14.2 µM | [12] 15.3 µM | [13] 14.7 µM | [14] 16.3 µM | [15] 11.6 µM | [16] 14.8 µM | [17] 13.3 µM

CC(C)(C)NCC(O)COc1cccc2[nH]c(C#N)cc12 (configuration not stated) [CYANOPINDOLOL]
inactive: [1] > 100 µM | [2] > 100 µM | [3] > 100 µM | [4] > 100 µM | [5] > 100 µM | [18] > 100 µM | [6] > 100 µM | [7] > 100 µM | [8] > 100 µM | [10] > 100 µM | [11] > 100 µM | [12] > 100 µM | [13] > 100 µM | [14] > 100 µM | [15] > 100 µM | [16] > 100 µM | [17] > 100 µM

CN(NC(=O)CCCl)C1=NCCCCN1
inactive: [1] > 100 µM | [2] > 100 µM | [3] > 100 µM | [5] > 100 µM | [18] > 100 µM | [19] > 100 µM | [6] > 100 µM | [7] > 100 µM | [8] > 100 µM | [9] > 100 µM | [10] > 100 µM | [11] > 100 µM | [12] > 100 µM | [13] > 100 µM | [14] > 100 µM | [15] > 100 µM | [16] > 100 µM | [17] > 100 µM

CSCCC(NC(=O)C(CC(C)C)NC(=O)CNC(=O)OC(C)(C)C)C(=O)N(C)C (stereo not drawn) (Boc-Gly-Leu-Met-NMe2; configuration not given here)
inactive: [1] > 100 µM | [2] > 100 µM | [3] > 100 µM | [4] > 100 µM | [5] > 100 µM | [18] 4 µM | [19] > 100 µM | [6] > 100 µM | [7] > 100 µM | [8] > 100 µM | [10] > 100 µM | [11] > 100 µM | [13] > 100 µM | [14] > 100 µM | [15] > 100 µM | [16] > 100 µM | [17] > 100 µM

NC(=S)N/N=C1\CCc2ccccc2C1
inactive: [1] > 100 µM | [2] > 100 µM | [3] > 100 µM | [5] > 100 µM | [19] > 100 µM | [6] > 100 µM | [7] > 100 µM | [8] > 100 µM | [9] > 100 µM | [10] > 100 µM | [11] > 100 µM | [12] > 100 µM | [13] > 100 µM | [14] > 100 µM | [15] > 100 µM | [16] > 100 µM | [17] > 100 µM

O=C(O)c1cccc(S(=O)(=O)NN2C(=O)CSC2c2ccccc2)c1 (configuration not stated)
inactive: [1] > 100 µM | [2] > 100 µM | [3] > 100 µM | [4] > 100 µM | [5] > 100 µM | [18] > 100 µM | [19] > 100 µM | [6] > 100 µM | [7] 74.6 µM | [8] > 100 µM | [9] > 100 µM | [11] > 100 µM | [12] 35.3 µM | [13] > 100 µM | [14] > 100 µM | [15] > 100 µM | [16] 32.9 µM | [17] > 100 µM

O=C(Cc1ccccc1)NNc1nc(NNC(=O)c2ccncc2)nc(Nc2ccccc2)n1
inactive: [1] > 10 µM | [3] > 10 µM | [4] > 10 µM | [18] > 10 µM | [19] > 10 µM | [6] > 10 µM | [7] > 10 µM | [8] > 10 µM | [9] > 10 µM | [10] > 10 µM | [12] > 10 µM | [14] > 10 µM | [15] > 10 µM | [16] > 10 µM | [17] > 10 µM

CC(=O)OCC1OC(SC2=NC(=O)CS2)C(OC(C)=O)C(OC(C)=O)C1OC(C)=O (configuration not stated)
inactive: [1] > 100 µM | [2] > 100 µM | [3] 93.5 µM and 62.7 µM | [4] 68.7 µM | [18] > 100 µM | [19] > 100 µM | [6] > 100 µM | [7] > 100 µM | [8] 57.7 µM and 51.8 µM | [9] > 100 µM | [11] > 100 µM | [12] 51.8 µM and 27.4 µM | [13] > 100 µM | [14] > 100 µM | [15] > 100 µM | [16] 39.6 µM and 67.5 µM

COC(CNC(=O)C(C)NC(=O)/C=C/c1ccccc1)OC (configuration not stated)
inactive: [1] > 100 µM | [2] > 100 µM | [3] > 100 µM | [4] > 100 µM | [5] > 100 µM | [18] > 100 µM | [6] > 100 µM | [7] > 100 µM | [8] > 100 µM | [9] > 100 µM | [11] > 100 µM | [12] > 100 µM | [13] > 100 µM | [15] > 100 µM | [16] > 100 µM | [17] > 100 µM
